According to patent US20140031283A1, “ANTICANCER FUSION PROTEIN” (ADAMED SP. Z O.O., priority 2011, published 2014):
Several values for one entry are separate records, joined by “and”; a condition that tells them apart may be missing. Equal values may be shown once. Read-outs that look alike come from different tables or passages of the source.

Tests used:
[1] = test system: NCI-H460
Description: Data analysis consists in determining IC50 concentration of the protein (in ng/ml), at which the 50% reduction in the number of cells occurs in the population treated compared to control cells. Results were analyzed using GraphPad Prism 5.0 software. […] Cell culture medium was diluted to a defined density (10^4-10^5 cells per 100 μl). Then 100 μl of appropriately diluted cell suspension was applied to a 96-well plate in triplicates. Thus prepared cells were incubated for 24 h at 37° C. in 5% or 10% CO2, depending on the medium used, and then to the cells (in 100 μl of medium) further 100 μl of the medium containing various concentrations of tested proteins were added. […] After incubation of the cells with tested proteins over the period of next 72 hours, which is equivalent to 3-4 times of cell division, the medium with the test protein was added with 20 ml of MTT working solution [5 mg/ml], and incubation was continued for 3 h at 37° C. in 5% CO2. Then the medium with MTT solution was removed, and formazan crystals were dissolved by adding 100 μl of DMSO. After stirring, the absorbance was measured at 570 nm (reference filter 690 nm).

[2] = test system: A549; assay: MTT cytotoxicity test, A549 (human lung cancer); format: cell-based
Excerpt: MTT assay is a colorimetric assay used to measure proliferation, viability and cytotoxicity of cells. It consists in decomposition of a yellow tetrazolium salt MTT (4,5-dimethyl-2-thiazolyl)-2,5-diphenyltetrazolium bromide) to the water-insoluble purple dye formazan by mitochondrial enzyme succinate-tetrazolium reductase 1. MTT reduction occurs only in living cells. Data analysis consists in determining IC50 concentration of the protein (in ng/ml), at which the 50% reduction in the number of cells occurs in the population treated compared to control cells. Results were analyzed using GraphPad Prism 5.0 software. The test was performed according to the literature descriptions (Cells, J E, (1998). Cell Biology, a Laboratory Handbook, second edition, Academic Press, San Diego; Yang, Y., Koh, L W, Tsai, J H., (2004); Involvement of viral and chemical factors with oral cancer in Taiwan, Jpn J Clin Oncol, 34 (4), 176-183). Cell culture medium was diluted to a defined density (10^4-10^5 cells per 100 μl). Then 100 μl of appropriately diluted cell suspension was applied to a 96-well plate in triplicates. Thus prepared cells were incubated for 24 h at 37° C. in 5% or 10% CO2, depending on the medium used, and then to the cells (in 100 μl of medium) further 100 μl of the medium containing various concentrations of tested proteins were added. In the case of combination hTRAIL114-281 and p21WAF effector protein, 100 μl of the medium containing mixture of hTRAIL114-281 and p21WAF effector protein in molar ratio 1:1 was added. After incubation of the cells with tested proteins over the period of next 72 hours, which is equivalent to 3-4 times of cell division, the medium with the test protein was added with […] of MTT working solution [5 mg/ml], and incubation was continued for 3 h at 37° C. in 5% CO2. Then the medium with MTT solution was removed, and formazan crystals were dissolved by adding 100 μl of DMSO. After stirring, the absorbance was measured at 570 nm (reference filter 690 nm). […]

[3] = test system: HCT-116
[4] = test system: HepG2; assay: MTT cytotoxicity test, HepG2 (human liver hepatoma); format: cell-based; details: continuous incubation over 72 h, test MTT
Excerpt: (§1) MTT assay is a colorimetric assay used to measure proliferation, viability and cytotoxicity of cells. It consists in decomposition of a yellow tetrazolium salt MTT (4,5-dimethyl-2-thiazolyl)-2,5-diphenyltetrazolium bromide) to the water-insoluble purple dye formazan by mitochondrial enzyme succinate-tetrazolium reductase 1. MTT reduction occurs only in living cells. Data analysis consists in determining IC50 concentration of the protein (in ng/ml), at which the 50% reduction in the number of cells occurs in the population treated compared to control cells. Results were analyzed using GraphPad Prism 5.0 software. The test was performed according to the literature descriptions (Cells, J E, (1998). Cell Biology, a Laboratory Handbook, second edition, Academic Press, San Diego; Yang, Y., Koh, L W, Tsai, J H., (2004); Involvement of viral and chemical factors with oral cancer in Taiwan, Jpn J Clin Oncol, 34 (4), 176-183). Cell culture medium was diluted to a defined density (10^4-10^5 cells per 100 μl). Then 100 μl of appropriately diluted cell suspension was applied to a 96-well plate in triplicates. […] After stirring, the absorbance was measured at 570 nm (reference filter 690 nm). […]

[5] = test system: MDA-MB-231; assay: MTT cytotoxicity test, MDA-MB-231 (human breast cancer); format: cell-based; details: continuous incubation over 72 h, test MTT
Excerpt: as §1

[6] = test system: DU-145; assay: MTT cytotoxicity test, DU-145 (human prostate cancer); format: cell-based; details: continuous incubation over 72 h
Excerpt: as §1

[7] = test system: MCF-7; assay: MTT cytotoxicity test, MCF-7 (human breast cancer); format: cell-based; details: continuous incubation over 72 h
Excerpt: as §1

[8] = test system: NIH: OVCAR-3; assay: MTT cytotoxicity test, NIH: OVCAR-3 (human ovarian cancer); format: cell-based
Excerpt: as §1

[9] = test system: HT144; assay: MTT cytotoxicity test, HT144 (human melanoma cells); format: cell-based
Excerpt: as §1

[10] = test system: HT-29; assay: MTT cytotoxicity test, HT-29 (human colorectal cancer); format: cell-based; details: continuous incubation over 72 h, test MTT
Excerpt: as §1

[11] = test system: CAKI 1; assay: MTT cytotoxicity test, CAKI 1 (human kidney cancer); format: cell-based; details: continuous incubation over 72 h
Excerpt: as §1

[12] = test system: SW780; assay: MTT cytotoxicity test, SW780 (human bladder cancer); format: cell-based
Excerpt: as §1

[13] = test system: CAKI 2; assay: MTT cytotoxicity test, CAKI 2 (human kidney cancer); format: cell-based; details: continuous incubation over 72 h
Excerpt: as §1

[14] = test system: MDA-MB-435s; assay: MTT cytotoxicity test, MDA-MB-435s (human breast cancer); format: cell-based; details: continuous incubation over 72 h
Excerpt: as §1

[15] = test system: Colo 205; assay: MTT cytotoxicity test, Colo 205 (human colorectal cancer); format: cell-based
Excerpt: as §1

[16] = test system: ACHN; assay: MTT cytotoxicity test, ACHN (human kidney cancer); format: cell-based; details: continuous incubation over 72 h
Excerpt: as §1

[17] = test system: SW620; assay: MTT cytotoxicity test, SW620 (human colorectal cancer); format: cell-based; details: continuous incubation over 72 h, test MTT
Excerpt: as §1

[18] = test system: SK-OV-3; assay: MTT cytotoxicity test, SK-OV-3 (human ovarian cancer); format: cell-based; details: continuous incubation over 72 h
Excerpt: as §1

[19] = test system: UM-UC-3; assay: MTT cytotoxicity test, UM-UC-3 (human bladder cancer); format: cell-based
Excerpt: as §1

[20] = test system: BxPC-3; assay: MTT cytotoxicity test, BxPC-3 (human pancreatic cancer); format: cell-based
Excerpt: as §1

[21] = test system: PLC/PRF/5; assay: MTT cytotoxicity test, PLC/PRF/5 (human liver hepatoma); format: cell-based; details: continuous incubation over 72 h, test MTT
Excerpt: as §1

[22] = test system: Panc-1; assay: MTT cytotoxicity test, Panc-1 (human pancreatic cancer); format: cell-based; details: continuous incubation over 72 h, test MTT
Excerpt: as §1

[23] = test system: Panc03.27; assay: MTT cytotoxicity test, Panc03.27 (human pancreatic cancer); format: cell-based; details: continuous incubation over 72 h
Excerpt: as §1

[24] = test system: MES-SA/Dx5; assay: MTT cytotoxicity test, MES-SA/Dx5 (multidrug-resistant human uterine sarcoma); format: cell-based; details: Table 4, mean/SD part
Excerpt: as §1

[25] = test system: HT1080; assay: MTT cytotoxicity test, HT1080 (human fibrosarcoma); format: cell-based; details: continuous incubation over 72 h
Excerpt: as §1

[26] = test system: SK-Hep-1; assay: MTT cytotoxicity test, SK-Hep-1 (human liver hepatoma); format: cell-based; details: continuous incubation over 72 h
Excerpt: as §1

[27] = test system: LNCaP; assay: MTT cytotoxicity test, LNCaP (human prostate cancer); format: cell-based; details: Table 4, mean/SD part
Excerpt: as §1

[28] = test system: SK-MES-1; assay: MTT cytotoxicity test, SK-MES-1 (human lung cancer); format: cell-based; details: Table 4, mean/SD part
Excerpt: as §1

[29] = test system: Jurkat A3; assay: EZ4U cytotoxicity test, Jurkat A3 (human leukaemia); format: cell-based; details: continuous incubation over 72 h; heading prints test MTT
Description: EZ4U (Biomedica) test was used for testing cytotoxic activity of the proteins in nonadherent cell lines. The test is a modification of the MTT method, wherein formazan formed in the reduction of tetrazolium salt is water-soluble. Cell viability study was carried out after continuous 72-hour incubation of the cells with protein (seven concentrations of protein, each in triplicates). On this basis IC5O values were determined (as an average of two independent experiments) using the GraphPad Prism 5 software. Control cells were incubated with the solvent only.
The results of in vitro cytotoxicity tests are summarized as IC50 values (ng/ml), which corresponds to the protein concentration at which the cytotoxic effect of fusion proteins is observed at the level of 50% with respect to control cells treated only with solvent. Each experiment represents the average value of at least two independent experiments performed in triplicates. As a criterion of lack of activity of protein preparations the IC50 limit of 2000 ng/ml was adopted.

[30] = test system: A498; assay: MTT cytotoxicity test, A498 (human kidney cancer); format: cell-based; details: continuous incubation over 72 h
Excerpt: as §1

[31] = continuous incubation over 72 h, test MTT

Compound: CC[C@H](C)[C@H](NC(=O)[C@H](CC(C)C)NC(=O)[C@H](CCCNC(=N)N)NC(=O)[C@H](CCCNC(=N)N)NC(=O)[C@H](CCCCN)NC(=O)[C@H](CO)NC(=O)[C@H](Cc1c[nH]cn1)NC(=O)[C@H](Cc1ccc(O)cc1)NC(=O)[C@H](Cc1ccccc1)NC(=O)[C@H](CC(=O)O)NC(=O)[C@@H](NC(=O)[C@H](C)NC(=O)[C@H](CO)NC(=O)[C@@H](NC(=O)[C@H](CCC(N)=O)NC(=O)[C@H](CCCNC(=N)N)NC(=O)[C@H](CCCNC(=N)N)NC(=O)[C@@H](N)CCCCN)[C@@H](C)O)[C@@H](C)O)C(=O)N[C@@H](Cc1ccccc1)C(=O)N[C@@H](CO)C(=O)O [peptide derived from p21WAF]
- NCI-H460 IC50 ([1]; 72 h): >1000 µg/mL
- A549 IC50 ([2]; 72 h): >1000 µg/mL
- HCT116 IC50 ([3]; 72 h): >1000 µg/mL

Compound: TRAIL 95-281
- HepG2 IC50 [4]: >2 µg/mL
- MDA-MB-231 IC50 [5]: >2 µg/mL
- DU145 IC50 [6]: >2 µg/mL
- MCF 7 IC50 [7]: >2 µg/mL
- OV-CAR-3 IC50 [8, 31]: 0.963 µg/mL
- HT144 IC50 [9, 31]: 0.0341 µg/mL
- HT29 IC50 [10]: >2 µg/mL
- CAKI 1 IC50 [11]: 0.3953 µg/mL
- SW780 IC50 [12, 31]: 0.12 µg/mL
- CAKI 2 IC50 [13]: >2 µg/mL
- A549 IC50 [2, 31]: >2 µg/mL
- MDA-MB-435s IC50 [14]: >2 µg/mL
- HCT116 IC50 [3, 31]: >2 µg/mL
- COLO205 IC50 [15, 31]: 0.05902 µg/mL
- ACHN IC50 [16]: >2 µg/mL
- SW620 IC50 [17]: >2 µg/mL
- SK-OV-3 IC50 [18]: >2 µg/mL
- UM-UC-3 IC50 [19, 31]: >2 µg/mL
- BxPC3 IC50 [20, 31]: 0.06061 µg/mL

Compound: rhTRAIL 95-281
- PLC/PRF/5 IC50 [21]: >2 µg/mL
- Panc-1 IC50 [22]: >2 µg/mL
- Panc03.27 IC50 [23]: 0.315 µg/mL
- MES-SA/Dx5 mean (IC50) [24]: 0.02915 µg/mL
- OVCAR-3 mean (IC50) ([8]; Table 4, mean/SD part): 0.963 µg/mL
- HT 144 mean (IC50) ([9]; Table 4, mean/SD part): 1.7335 µg/mL
- NCI-H460 mean (IC50) ([1]; Table 4, mean/SD part): 5.8885 µg/mL and 5.888 µg/mL
- NCI-H460 IC50 [1, 31]: 0.4382 µg/mL
- HT1080 IC50 [25]: >2 µg/mL
- SK Hep-1 IC50 [26]: >2 µg/mL
- SW780 mean (IC50) ([12]; Table 4, mean/SD part): 0.12 µg/mL
- LNCaP mean (IC50) [27]: 2.0515 µg/mL
- HCT116 mean (IC50) ([3]; Table 4, mean/SD part): 7.558 µg/mL
- COLO 205 mean (IC50) ([15]; Table 4, mean/SD part): 0.0249 µg/mL
- SK-MES-1 mean (IC50) [28]: 0.0336 µg/mL
- JURKAT A3 IC50 [29]: >2 µg/mL
- UM-UC-3 mean (IC50) ([19]; Table 4, mean/SD part): 2.242 µg/mL and 2.241 µg/mL
- A498 IC50 [30]: 1.611 µg/mL
- BxPC3 mean (IC50) ([20]; Table 4, mean/SD part): 0.06471 µg/mL
